{"source": "paper PMC10337138", "about": "(Acta Neuropathologica Communications, 2023)", "conditions_in_all_cases": "1 mM ATP; inhibitor", "key": {"ULK2": {"biological_target": "ULK2 (Homo sapiens, UniProt Q8IYT8)", "sequence (Q8IYT8 whole entry)": "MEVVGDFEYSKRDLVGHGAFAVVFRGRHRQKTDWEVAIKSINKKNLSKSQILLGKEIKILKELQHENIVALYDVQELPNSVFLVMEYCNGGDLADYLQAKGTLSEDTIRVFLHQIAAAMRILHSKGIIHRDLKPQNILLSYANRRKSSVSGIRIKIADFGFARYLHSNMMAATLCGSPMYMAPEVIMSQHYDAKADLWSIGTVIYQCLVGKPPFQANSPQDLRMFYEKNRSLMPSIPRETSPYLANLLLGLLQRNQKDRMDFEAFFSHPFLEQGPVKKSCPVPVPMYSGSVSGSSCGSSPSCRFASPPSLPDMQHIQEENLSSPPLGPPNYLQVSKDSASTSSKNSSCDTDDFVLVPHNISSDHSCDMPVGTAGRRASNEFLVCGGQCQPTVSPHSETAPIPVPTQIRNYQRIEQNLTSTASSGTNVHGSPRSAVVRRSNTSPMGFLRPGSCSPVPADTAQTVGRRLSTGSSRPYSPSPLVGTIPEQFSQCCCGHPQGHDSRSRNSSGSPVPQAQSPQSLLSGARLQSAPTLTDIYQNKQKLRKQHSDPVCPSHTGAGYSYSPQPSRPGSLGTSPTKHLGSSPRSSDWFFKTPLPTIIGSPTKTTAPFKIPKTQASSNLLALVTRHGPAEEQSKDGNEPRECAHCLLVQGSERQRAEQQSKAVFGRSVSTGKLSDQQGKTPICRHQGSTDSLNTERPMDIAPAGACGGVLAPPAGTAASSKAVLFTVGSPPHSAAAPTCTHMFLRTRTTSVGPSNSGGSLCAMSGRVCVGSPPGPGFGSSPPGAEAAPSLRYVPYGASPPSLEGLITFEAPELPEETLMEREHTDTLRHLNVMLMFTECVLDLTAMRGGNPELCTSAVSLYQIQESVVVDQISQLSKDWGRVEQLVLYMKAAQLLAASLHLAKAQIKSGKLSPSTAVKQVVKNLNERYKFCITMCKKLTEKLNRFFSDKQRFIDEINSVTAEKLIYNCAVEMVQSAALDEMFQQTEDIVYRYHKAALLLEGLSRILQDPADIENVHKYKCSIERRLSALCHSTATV", "protocol": "(§1) Kinase selectivity panel Kinome profiling was conducted by AssayQuant Technologies (Marlboro, MA) using Sox chromophore technology and Sox-based peptide substrates developed for human kinases in a 384-well format. Compounds were tested at 1 µM in the presence of 1 mM ATP."}, "SRMS": {"biological_target": "SRMS (Homo sapiens, UniProt Q9H3Y6)", "protocol": "as §1"}, "EPHA8": {"biological_target": "EPHA8 (Homo sapiens, UniProt P29322)", "protocol": "as §1"}, "LYNB": {"biological_target": "T1, LYNB (Homo sapiens, UniProt P07948)", "T1 construct": "gene LYN", "protocol": "as §1"}, "FES": {"biological_target": "FES (Homo sapiens, UniProt P07332)", "protocol": "as §1"}, "MARK3": {"biological_target": "MARK3 (Homo sapiens, UniProt P27448)", "protocol": "as §1"}, "GRK6": {"biological_target": "GRK6 (Homo sapiens, UniProt P43250)", "protocol": "as §1"}, "EIF2AK1/HRI": {"biological_target": "EIF2AK1/HRI (Homo sapiens, UniProt Q9BQI3)", "protocol": "as §1"}, "CDK5/P35": {"biological_target": "CDK5/P35 (Homo sapiens, UniProt Q00535)", "protocol": "as §1"}, "MAP3K10": {"biological_target": "MAP3K10 (Homo sapiens, UniProt Q02779)", "protocol": "as §1"}, "PHKG1": {"biological_target": "PHKG1 (Homo sapiens, UniProt Q16816)", "protocol": "as §1"}, "PTK6/BRK": {"biological_target": "PTK6/BRK (Homo sapiens, UniProt Q13882)", "protocol": "as §1"}, "LRRK2": {"biological_target": "LRRK2 (Homo sapiens, UniProt Q5S007)", "protocol": "as §1"}, "PKN2": {"biological_target": "PKN2 (Homo sapiens, UniProt Q16513)", "protocol": "as §1"}, "AKT3": {"biological_target": "AKT3 (Homo sapiens, UniProt Q9Y243)", "protocol": "as §1"}, "MAP3K11": {"biological_target": "MAP3K11 (Homo sapiens, UniProt Q16584)", "protocol": "as §1"}, "MLK4": {"biological_target": "T2, MLK4 (Homo sapiens, UniProt Q5TCX8)", "T2 construct": "gene MAP3K21", "protocol": "as §1"}, "ROCK2": {"biological_target": "ROCK2 (Homo sapiens, UniProt O75116)", "protocol": "as §1"}, "NTRK1": {"biological_target": "NTRK1 (Homo sapiens, UniProt P04629)", "protocol": "as §1"}, "NEK2": {"biological_target": "NEK2 (Homo sapiens, UniProt P51955)", "protocol": "as §1"}, "LYNA": {"biological_target": "T3, LYNA (Homo sapiens, UniProt P07948)", "T3 construct": "gene LYN", "protocol": "as §1"}, "DMPK1": {"biological_target": "T4, DMPK1 (Homo sapiens, UniProt Q09013)", "T4 construct": "gene DMPK", "protocol": "as §1"}, "BUB1": {"biological_target": "BUB1 (Homo sapiens, UniProt O43683)", "protocol": "as §1"}, "MAP4K3/GLK": {"biological_target": "MAP4K3/GLK (Homo sapiens, UniProt Q8IVH8)", "sequence (Q8IVH8 whole entry)": "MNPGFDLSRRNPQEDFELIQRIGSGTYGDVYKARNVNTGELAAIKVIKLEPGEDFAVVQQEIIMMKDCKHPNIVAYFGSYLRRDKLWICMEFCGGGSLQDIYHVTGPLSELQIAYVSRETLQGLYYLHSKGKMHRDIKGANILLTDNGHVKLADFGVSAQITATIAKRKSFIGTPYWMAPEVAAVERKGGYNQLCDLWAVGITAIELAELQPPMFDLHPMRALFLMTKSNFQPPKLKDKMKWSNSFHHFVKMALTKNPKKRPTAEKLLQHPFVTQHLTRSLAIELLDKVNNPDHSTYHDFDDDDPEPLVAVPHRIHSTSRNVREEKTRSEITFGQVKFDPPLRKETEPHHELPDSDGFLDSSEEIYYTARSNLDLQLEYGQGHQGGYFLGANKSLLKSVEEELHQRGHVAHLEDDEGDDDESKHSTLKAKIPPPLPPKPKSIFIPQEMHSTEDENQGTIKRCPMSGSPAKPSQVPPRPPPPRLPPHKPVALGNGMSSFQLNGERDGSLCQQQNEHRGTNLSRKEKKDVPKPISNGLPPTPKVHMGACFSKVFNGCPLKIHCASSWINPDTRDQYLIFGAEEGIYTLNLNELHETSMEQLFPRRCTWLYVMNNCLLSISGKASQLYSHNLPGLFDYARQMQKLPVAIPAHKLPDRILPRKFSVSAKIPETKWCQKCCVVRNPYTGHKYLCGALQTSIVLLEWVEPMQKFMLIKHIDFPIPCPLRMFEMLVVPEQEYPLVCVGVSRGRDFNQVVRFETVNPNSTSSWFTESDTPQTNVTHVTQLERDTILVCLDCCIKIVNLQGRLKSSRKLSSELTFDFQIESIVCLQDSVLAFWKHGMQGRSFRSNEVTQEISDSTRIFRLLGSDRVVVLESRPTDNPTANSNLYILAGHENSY", "protocol": "as §1"}, "MAP3K3": {"biological_target": "MAP3K3 (Homo sapiens, UniProt Q99759)", "sequence (Q99759 whole entry)": "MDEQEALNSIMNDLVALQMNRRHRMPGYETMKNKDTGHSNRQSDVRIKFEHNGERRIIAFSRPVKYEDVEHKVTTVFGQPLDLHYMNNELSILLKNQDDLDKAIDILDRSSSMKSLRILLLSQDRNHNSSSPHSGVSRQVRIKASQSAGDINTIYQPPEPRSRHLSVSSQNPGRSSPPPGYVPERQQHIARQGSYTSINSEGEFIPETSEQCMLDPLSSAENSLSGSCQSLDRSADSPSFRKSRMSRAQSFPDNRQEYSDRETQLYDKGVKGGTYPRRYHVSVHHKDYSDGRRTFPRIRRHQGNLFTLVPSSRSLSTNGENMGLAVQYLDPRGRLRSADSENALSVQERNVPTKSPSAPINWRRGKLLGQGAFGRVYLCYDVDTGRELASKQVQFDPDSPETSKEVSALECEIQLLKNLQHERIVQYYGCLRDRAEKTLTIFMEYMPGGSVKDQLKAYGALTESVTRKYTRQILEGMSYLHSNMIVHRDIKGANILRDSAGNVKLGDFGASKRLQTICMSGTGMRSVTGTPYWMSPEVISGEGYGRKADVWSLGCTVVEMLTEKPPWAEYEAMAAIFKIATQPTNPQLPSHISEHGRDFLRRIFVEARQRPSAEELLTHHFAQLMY", "protocol": "as §1"}, "HIPK2": {"biological_target": "HIPK2 (Homo sapiens, UniProt Q9H2X6)", "protocol": "as §1"}, "KDR": {"biological_target": "KDR (Homo sapiens, UniProt P35968)", "sequence (P35968 whole entry)": "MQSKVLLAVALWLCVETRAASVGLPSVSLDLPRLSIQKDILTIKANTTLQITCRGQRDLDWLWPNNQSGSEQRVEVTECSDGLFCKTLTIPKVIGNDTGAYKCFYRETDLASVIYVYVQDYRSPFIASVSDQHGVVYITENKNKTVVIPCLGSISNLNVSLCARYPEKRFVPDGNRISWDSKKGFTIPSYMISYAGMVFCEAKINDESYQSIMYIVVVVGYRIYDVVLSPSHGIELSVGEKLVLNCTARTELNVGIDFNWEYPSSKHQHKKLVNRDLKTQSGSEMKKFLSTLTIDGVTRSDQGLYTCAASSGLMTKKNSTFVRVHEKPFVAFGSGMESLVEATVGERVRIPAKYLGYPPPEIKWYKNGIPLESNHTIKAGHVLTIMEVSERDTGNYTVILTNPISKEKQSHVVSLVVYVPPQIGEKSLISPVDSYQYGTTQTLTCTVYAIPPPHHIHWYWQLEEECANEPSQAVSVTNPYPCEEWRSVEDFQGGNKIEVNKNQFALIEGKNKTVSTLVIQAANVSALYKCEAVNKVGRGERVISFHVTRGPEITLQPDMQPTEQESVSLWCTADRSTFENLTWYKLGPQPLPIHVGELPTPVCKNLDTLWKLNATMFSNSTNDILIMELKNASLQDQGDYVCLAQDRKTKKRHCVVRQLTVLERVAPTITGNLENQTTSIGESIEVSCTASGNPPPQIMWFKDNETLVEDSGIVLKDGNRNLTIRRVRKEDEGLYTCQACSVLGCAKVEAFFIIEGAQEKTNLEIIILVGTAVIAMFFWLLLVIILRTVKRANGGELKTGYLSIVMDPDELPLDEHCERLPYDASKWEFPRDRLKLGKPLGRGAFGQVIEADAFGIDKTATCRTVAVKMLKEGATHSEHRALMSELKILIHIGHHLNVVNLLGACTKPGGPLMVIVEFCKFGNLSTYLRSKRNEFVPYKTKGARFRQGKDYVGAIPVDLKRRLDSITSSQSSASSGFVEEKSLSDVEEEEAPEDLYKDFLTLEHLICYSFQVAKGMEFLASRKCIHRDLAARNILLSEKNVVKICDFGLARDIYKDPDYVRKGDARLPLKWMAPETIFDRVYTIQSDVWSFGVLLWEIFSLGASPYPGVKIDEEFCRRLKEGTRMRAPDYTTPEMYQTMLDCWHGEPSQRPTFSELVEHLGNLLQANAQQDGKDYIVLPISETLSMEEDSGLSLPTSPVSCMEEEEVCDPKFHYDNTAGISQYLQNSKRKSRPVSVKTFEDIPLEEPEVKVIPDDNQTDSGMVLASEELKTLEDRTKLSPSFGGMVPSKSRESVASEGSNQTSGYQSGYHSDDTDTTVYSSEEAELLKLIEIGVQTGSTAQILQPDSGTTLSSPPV", "protocol": "as §1"}, "EGFR": {"biological_target": "EGFR (Homo sapiens, UniProt P00533)", "protocol": "as §1"}, "NDR2": {"biological_target": "T5, NDR2 (Homo sapiens, UniProt Q9Y2H1)", "T5 construct": "gene STK38L", "protocol": "as §1"}, "FGFR3": {"biological_target": "FGFR3 (Homo sapiens, UniProt P22607)", "protocol": "as §1"}, "TNK2/ACK": {"biological_target": "TNK2/ACK (Homo sapiens, UniProt Q07912)", "protocol": "as §1"}, "PLK1": {"biological_target": "PLK1 (Homo sapiens, UniProt P53350)", "protocol": "as §1"}, "RPS6KA1/RSK1": {"biological_target": "RPS6KA1/RSK1 (Homo sapiens, UniProt Q15418)", "protocol": "as §1"}, "CSNK1G1/CK1G1": {"biological_target": "CSNK1G1/CK1G1 (Homo sapiens, UniProt Q9HCP0)", "protocol": "as §1"}, "ULK1": {"biological_target": "ULK1 (Homo sapiens, UniProt O75385)", "protocol": "as §1"}, "RPS6KB2/P70S6KB": {"biological_target": "RPS6KB2/P70S6KB (Homo sapiens, UniProt Q9UBS0)", "sequence (Q9UBS0 whole entry)": "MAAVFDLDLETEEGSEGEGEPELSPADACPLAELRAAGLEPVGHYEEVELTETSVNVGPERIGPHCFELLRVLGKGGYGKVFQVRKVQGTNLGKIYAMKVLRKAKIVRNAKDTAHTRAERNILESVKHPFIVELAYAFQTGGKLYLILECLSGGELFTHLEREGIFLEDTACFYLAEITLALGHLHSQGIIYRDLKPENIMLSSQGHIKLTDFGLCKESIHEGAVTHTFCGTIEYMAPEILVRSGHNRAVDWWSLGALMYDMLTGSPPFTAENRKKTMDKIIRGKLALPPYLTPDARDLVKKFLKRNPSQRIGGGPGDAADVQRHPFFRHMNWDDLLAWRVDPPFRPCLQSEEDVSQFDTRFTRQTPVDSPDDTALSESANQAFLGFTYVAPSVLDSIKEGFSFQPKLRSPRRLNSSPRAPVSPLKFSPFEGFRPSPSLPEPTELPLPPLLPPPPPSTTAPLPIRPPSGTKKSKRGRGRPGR", "protocol": "as §1"}, "SRPK3/MSSK1": {"biological_target": "SRPK3/MSSK1 (Homo sapiens, UniProt Q9UPE1)", "protocol": "as §1"}, "CAMK1G": {"biological_target": "CAMK1G (Homo sapiens, UniProt Q96NX5)", "sequence (Q96NX5 whole entry)": "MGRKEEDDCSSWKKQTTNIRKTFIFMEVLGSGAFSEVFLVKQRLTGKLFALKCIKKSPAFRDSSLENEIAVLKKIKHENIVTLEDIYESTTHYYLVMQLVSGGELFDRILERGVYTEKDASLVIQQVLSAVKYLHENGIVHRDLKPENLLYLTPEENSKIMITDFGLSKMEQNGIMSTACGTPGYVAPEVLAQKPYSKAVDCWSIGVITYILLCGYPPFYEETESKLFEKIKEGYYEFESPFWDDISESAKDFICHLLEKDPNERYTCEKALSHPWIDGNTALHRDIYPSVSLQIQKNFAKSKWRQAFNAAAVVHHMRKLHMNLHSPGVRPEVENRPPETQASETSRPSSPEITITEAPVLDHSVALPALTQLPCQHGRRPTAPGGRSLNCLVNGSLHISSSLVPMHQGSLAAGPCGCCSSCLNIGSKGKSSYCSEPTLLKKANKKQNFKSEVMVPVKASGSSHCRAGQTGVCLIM", "protocol": "as §1"}, "NEK7": {"biological_target": "NEK7 (Homo sapiens, UniProt Q8TDX7)", "protocol": "as §1"}}, "data": [{"smiles": "C=CC(=O)N1CCC[C@@H](n2nc(-c3ccc(Oc4ccccc4)cc3)c3c(N)ncnc32)C1", "note": "[Ibrutinib]", "values": [{"measurement": "1 µM GBD00276 (ibrutinib), % inhibition", "setting": "ULK2", "value": -2.604, "unit": "%"}, {"measurement": "1 µM GBD00276 (ibrutinib), % inhibition", "setting": "SRMS", "value": 81.42, "unit": "%"}, {"measurement": "1 µM GBD00276 (ibrutinib), % inhibition", "setting": "EPHA8", "value": 15.21, "unit": "%"}, {"measurement": "1 µM GBD00276 (ibrutinib), % inhibition", "setting": "LYNB", "value": 40.58, "unit": "%"}, {"measurement": "1 µM GBD00276 (ibrutinib), % inhibition", "setting": "FES", "value": 7.857, "unit": "%"}, {"measurement": "1 µM GBD00276 (ibrutinib), % inhibition", "setting": "MARK3", "value": 4.514, "unit": "%"}, {"measurement": "1 µM GBD00276 (ibrutinib), % inhibition", "setting": "GRK6", "value": -23.1, "unit": "%"}, {"measurement": "1 µM GBD00276 (ibrutinib), % inhibition", "setting": "EIF2AK1/HRI", "value": -3.537, "unit": "%"}, {"measurement": "1 µM GBD00276 (ibrutinib), % inhibition", "setting": "CDK5/P35", "value": 2.273, "unit": "%"}, {"measurement": "1 µM GBD00276 (ibrutinib), % inhibition", "setting": "MAP3K10", "value": -7.966, "unit": "%"}, {"measurement": "1 µM GBD00276 (ibrutinib), % inhibition", "setting": "PHKG1", "value": 0.1781, "unit": "%"}, {"measurement": "1 µM GBD00276 (ibrutinib), % inhibition", "setting": "PTK6/BRK", "value": 98.64, "unit": "%"}, {"measurement": "1 µM GBD00276 (ibrutinib), % inhibition", "setting": "LRRK2", "value": -5.334, "unit": "%"}, {"measurement": "1 µM GBD00276 (ibrutinib), % inhibition", "setting": "PKN2", "value": 2.374, "unit": "%"}, {"measurement": "1 µM GBD00276 (ibrutinib), % inhibition", "setting": "AKT3", "value": 18.375, "unit": "%"}, {"measurement": "1 µM GBD00276 (ibrutinib), % inhibition", "setting": "MAP3K11", "value": -6.395, "unit": "%"}, {"measurement": "1 µM GBD00276 (ibrutinib), % inhibition", "setting": "MLK4", "value": 4.614, "unit": "%"}, {"measurement": "1 µM GBD00276 (ibrutinib), % inhibition", "setting": "ROCK2", "value": 8.461, "unit": "%"}, {"measurement": "1 µM GBD00276 (ibrutinib), % inhibition", "setting": "NTRK1", "value": 11.58, "unit": "%"}, {"measurement": "1 µM GBD00276 (ibrutinib), % inhibition", "setting": "NEK2", "value": 2.418, "unit": "%"}, {"measurement": "1 µM GBD00276 (ibrutinib), % inhibition", "setting": "LYNA", "value": 35.64, "unit": "%"}, {"measurement": "1 µM GBD00276 (ibrutinib), % inhibition", "setting": "DMPK1", "value": -2.197, "unit": "%"}, {"measurement": "1 µM GBD00276 (ibrutinib), % inhibition", "setting": "BUB1", "value": 26.62, "unit": "%"}, {"measurement": "1 µM GBD00276 (ibrutinib), % inhibition", "setting": "MAP4K3/GLK", "value": 9.762, "unit": "%"}, {"measurement": "1 µM GBD00276 (ibrutinib), % inhibition", "setting": "MAP3K3", "value": 0.2657, "unit": "%"}, {"measurement": "1 µM GBD00276 (ibrutinib), % inhibition", "setting": "HIPK2", "value": 1.01, "unit": "%"}, {"measurement": "1 µM GBD00276 (ibrutinib), % inhibition", "setting": "KDR", "value": 29.01, "unit": "%"}, {"measurement": "1 µM GBD00276 (ibrutinib), % inhibition", "setting": "EGFR", "value": 96.63, "unit": "%"}, {"measurement": "1 µM GBD00276 (ibrutinib), % inhibition", "setting": "NDR2", "value": 11.14, "unit": "%"}, {"measurement": "1 µM GBD00276 (ibrutinib), % inhibition", "setting": "FGFR3", "value": 31.81, "unit": "%"}, {"measurement": "1 µM GBD00276 (ibrutinib), % inhibition", "setting": "TNK2/ACK", "value": 31.95, "unit": "%"}, {"measurement": "1 µM GBD00276 (ibrutinib), % inhibition", "setting": "PLK1", "value": 6.704, "unit": "%"}, {"measurement": "1 µM GBD00276 (ibrutinib), % inhibition", "setting": "RPS6KA1/RSK1", "value": 9.099, "unit": "%"}, {"measurement": "1 µM GBD00276 (ibrutinib), % inhibition", "setting": "CSNK1G1/CK1G1", "value": 4.449, "unit": "%"}, {"measurement": "1 µM GBD00276 (ibrutinib), % inhibition", "setting": "ULK1", "value": -8.778, "unit": "%"}, {"measurement": "1 µM GBD00276 (ibrutinib), % inhibition", "setting": "RPS6KB2/P70S6KB", "value": -2.111, "unit": "%"}, {"measurement": "1 µM GBD00276 (ibrutinib), % inhibition", "setting": "SRPK3/MSSK1", "value": 1.885, "unit": "%"}, {"measurement": "1 µM GBD00276 (ibrutinib), % inhibition", "setting": "CAMK1G", "value": 11.1875, "unit": "%"}, {"measurement": "1 µM GBD00276 (ibrutinib), % inhibition", "setting": "NEK7", "value": -0.8851, "unit": "%"}]}]}
